SMILES: CC(=O)O[C@]1(C(C)=O)CC[C@H]2[C@@H]3C=C(Cl)C4=CC(=O)[C@@H]5C[C@@H]5[C@]4(C)[C@H]3CC[C@@]21C
- solubility (mole fraction) (in MTBE, 273.15 K): 0.000675
- solubility (mole fraction) (in MTBE, 278.15 K): 0.000675
- solubility (mole fraction) (in MTBE, 283.15 K): 0.000676
- solubility (mole fraction) (in MTBE, 288.15 K): 0.000676
- solubility (mole fraction) (in MTBE, 293.15 K): 0.000677
- solubility (mole fraction) (in MTBE, 298.15 K): 0.000677
- solubility (mole fraction) (in MTBE, 303.15 K): 0.000678
- solubility (mole fraction) (in MTBE, 308.15 K): 0.000678
- solubility (mole fraction) (in MTBE, 313.15 K): 0.000679
- solubility (mole fraction) (in MTBE, 318.15 K): 0.000679
- solubility (mole fraction) (in methanol, 273.15 K): 0.000229
- solubility (mole fraction) (in methanol, 278.15 K): 0.000229
- solubility (mole fraction) (in methanol, 283.15 K): 0.000229
- solubility (mole fraction) (in methanol, 288.15 K): 0.00023
- solubility (mole fraction) (in methanol, 293.15 K): 0.00023
- solubility (mole fraction) (in methanol, 298.15 K): 0.00023
- solubility (mole fraction) (in methanol, 303.15 K): 0.00023
- solubility (mole fraction) (in methanol, 308.15 K): 0.00023
- solubility (mole fraction) (in methanol, 313.15 K): 0.00023
- solubility (mole fraction) (in methanol, 318.15 K): 0.000231
- solubility (mole fraction) (in water, 273.15 K): 6.57e-07
- solubility (mole fraction) (in water, 278.15 K): 8.66e-07
- solubility (mole fraction) (in water, 283.15 K): 1.16e-06
- solubility (mole fraction) (in water, 288.15 K): 1.56e-06
- solubility (mole fraction) (in water, 293.15 K): 2.09e-06
- solubility (mole fraction) (in water, 298.15 K): 2.79e-06
- solubility (mole fraction) (in water, 303.15 K): 3.67e-06
- solubility (mole fraction) (in water, 308.15 K): 4.88e-06
- solubility (mole fraction) (in water, 313.15 K): 6.36e-06
- solubility (mole fraction) (in water, 318.15 K): 8.21e-06
